Laboratory results taken from patent publication US10730863B2, “Bridged bicyclic compounds as farnesoid X receptor modulators” (BRISTOL-MYERS SQUIBB COMPANY, priority 2017, dated 2020).

biological target: T1, FXR (Homo sapiens (Human), UniProt Q96RI1); assay: FXR EC50 (FXR agonist activity reported with each example); type: cell-based; settings: not given
T1 sequence (Q96RI1 262-486): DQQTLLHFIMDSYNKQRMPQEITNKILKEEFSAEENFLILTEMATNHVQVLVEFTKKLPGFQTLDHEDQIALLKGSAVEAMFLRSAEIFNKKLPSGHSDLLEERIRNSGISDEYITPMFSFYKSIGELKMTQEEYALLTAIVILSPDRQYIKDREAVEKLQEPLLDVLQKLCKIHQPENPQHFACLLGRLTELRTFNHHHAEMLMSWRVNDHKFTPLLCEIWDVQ

Row | Compound | EC50 [nM]
1 | O=C(O)c1cc(OCC2CCC2)c2cc(OCC34CCC(OCc5c(-c6c(Cl)cncc6Cl)noc5C5CC5)(CC3)CC4)ccc2n1 [Example 353] | 11
2 | O=C(O)c1cccc(NC(=O)C23CCC(COCc4c(-c5c(Cl)cccc5Cl)noc4C4CC4)(CC2)CC3)c1Cl [Example 173] | 1400
3 | O=C(O)c1cccc(-c2noc(C34CCC(/C=C/c5c(-c6c(Cl)cccc6Cl)noc5C5CC5)(CC3)CC4)n2)c1 [Example 159, (E)-3-(5-(4-(2-(5-cyclopropyl-3-(2,6-dichlorophenyl)isoxazol-4-yl)vinyl)bicycle[2.2.2]octan-1-yl)-1,2,4-oxadiazol-3-yl)benzoic acid] | 14
4 | Cc1nc(C#CC23CCC(OCc4c(-c5c(Cl)cncc5Cl)noc4C4CC4)(CC2)CC3)ccc1C(=O)O [Example 417] | 300
5 | O=C(O)c1cc(F)c2nc(C34CCC(OCc5c(-c6c(Cl)cncc6Cl)noc5C5CC5)(CC3)CC4)ccc2c1 [Example 369] | 41
6 | 3-((4-((5-cyclopropyl-3-(2- trifluoromethoxy)phenyl)isoxazol-4- yl)methoxy)bicyclo[2.2.2]octan-1- yl)methoxy)nicotinic acid [Example 78] | 1400
7 | O=C(O)c1cc(F)c2nc(OCC34CCC(OCc5c(-c6ccccc6OC(F)(F)F)noc5C5CC5)(CC3)CC4)sc2c1 [Example 79] | 130
8 | COc1nc(C(=O)O)cc2ccc(/C=C/C34CCC(OCc5c(-c6c(Cl)cncc6Cl)noc5C5CC5)(CC3)CC4)cc12 [Example 517, (E)-7-(2-(4-((5-cyclopropyl-3-(3,5-dichloropyridin-4-yl)isoxazol-4-yl)methoxy)bicyclo[2.2.2]octan-1-yl)vinyl)-1-methoxyisoquinoline-3-carboxylic acid] | 42
9 | O=C(O)c1cc(-c2noc(C34CCC(OCc5c(-c6c(Cl)cncc6Cl)noc5C5CC5)(CC3)CC4)n2)cc(C(F)(F)F)n1 [Example 264, 4-(5-(4-((5-cyclopropyl-3-(3,5-dichloropyridin-4-yl)isoxazol-4-yl)methoxy)bicyclo[2.2.2]octan-1-yl)-1,2,4-oxadiazol-3-yl)-6-(trifluoromethyl)picolinic acid] | 180
10 | CC(C)(C#N)c1ccc(C23CCC(/C=C/c4c(-c5ccccc5C(F)(F)F)noc4C4CC4)(CC2)CO3)cc1 [Example 476, (E)-2-(4-(4-(2-(5-cyclopropyl-3-(2-(trifluoromethyl)phenyl)isoxazol-4-yl)vinyl)-2-oxabicyclo[2.2.2]octan-1-yl)phenyl)-2-methylpropanenitrile] | 690
11 | O=C(O)c1ncc(OCC23CCC(OCc4c(-c5c(Cl)cncc5Cl)noc4C4CC4)(CC2)CC3)cc1OCC(F)(F)F [Example 300, 5-((4-((5-cyclopropyl-3-(3,5-dichloropyridin-4-yl)isoxazol-4-yl)methoxy)bicyclo[2.2.2]octan-1-yl)methoxy)-3-(2,2,2-trifluoroethoxy)picolinic acid] | 57
12 | O=C(O)c1cc(OC(F)F)c2cc(OCC34CCC(/C=C/c5c(-c6c(Cl)cncc6Cl)noc5C5CC5)(CC3)OC4)ccc2n1 [Example 472, (E)-6-((1-(2-(5-cyclopropyl-3-(3,5-dichloropyridin-4-yl)isoxazol-4-yl)vinyl)-2-oxabicyclo[2.2.2]octan-4-yl)methoxy)-4-(difluoromethoxy)quinoline-2-carboxylic acid] | 290
13 | O=C(O)c1ccc(NC(=O)C23CCC(COCc4c(-c5c(Cl)cccc5Cl)noc4C4CC4)(CC2)CC3)c(Cl)c1 [Example 170, 3-chloro-4-(4-(((5-cyclopropyl-3-(2,6-dichlorophenyl)isoxazol-4-yl)methoxy)methyl)bicyclo[2.2.2]octane-1-carboxamido)benzoic acid] | 636
14 | O=C(O)c1cc(C#CC23CCC(OCc4c(-c5c(Cl)cncc5Cl)noc4C4CC4)(CC2)CC3)cc(C(F)(F)F)c1 [Example 366] | 27
15 | O=C(O)c1cccc2nc(C34CCC(C=Cc5c(-c6c(Cl)cccc6Cl)noc5C5CC5)(CC3)CC4)sc12 [Example 189] | 63

biological target: T1, FXR; assay: transient human FXR/Gal4-luciferase reporter assay; type: cell-based; settings: Gal4-hFXR LBD fusion in HEK293 reporter cells; relative to 8 μM GW-4064
Description: The exemplified compounds of the present invention were tested in the transient human FXR/Gal4-luciferase reporter assay, and assay results were described in the EXAMPLES section hereinbefore.
A Gal4-hFXR fusion construct reporter system was used as the primary assay to characterize compound activity. A construct including 5 copies of the Gal4 promoter response element upstream of a firefly luciferase reporter cDNA was stably expressed in HEK293 cells. This reporter cell line was maintained in Dulbecco's Modified Eagle's medium (DMEM; Gibco) supplemented with 1% penicillin-streptomycin (P/S) solution, 500 μg/ml Zeocin and 10% charcoal/dextran-treated fetal bovine serum (cs-FBS) at 37° C. in a humidified 5% CO2 atmosphere. Another plasmid was constructed in which the human cytomegalovirus promoter in the pcDNA3.1 vector directs the expression of the cDNA encoding a fusion protein comprised of the DNA binding domain from the Gal4 transcription factor fused to the ligand binding domain from human FXR.
The day prior to transfection, the reporter cells in culture are detached from the plate with trypsin and plated into a T75 flask at a sufficient density to achieve approximately 90% confluence the next morning. The transfection reagents are prepared by separately diluting 25 μg of the pcDNA3.1-Gal4-FXR plasmid into 1.87 mL of Opti-MEM (Thermo-Fisher), and 40 μL of Lipofectamine 2000 (Thermo-Fisher) into 1.87 mL of Opti-MEM, and then adding the diluted DNA solution into the diluted Lipofectamine 2000 solution and incubating at room temperature for 15-20 minutes. The mixture is further diluted with 10 mL of a solution comprised of DMEM, 10% cs-FBS, and 1% P/S immediately prior to transferring to the cells. The maintenance culture media is aspirated from the cells and the final transfection mixture is added before the cells are incubated overnight at 37° C. in a humidified 5% CO2 atmosphere. This protocol can be scaled up, and the transiently transfected cells can be cryopreserved in an assay-ready format.
For compound testing, 100 nL of the compounds (serial dilutions in DMSO) are dispensed with an Echo acoustic dispenser (Labcyte) into the wells of a Corning/Costar clear bottom 384-well white plate. The transfected cells are harvested, counted, and diluted such that 10-25,000 cells in 25 μL are plated into each well of the 384-well compound assay plate. The compound-treated cells are incubated overnight at 37° C. in a humidified 5% CO2 atmosphere. The next morning 25 μL of Steady-Glo (Promega) are added to each well of the plate, the mixture is incubated for 15 min. with shaking, and luminescence is measured on an Envision (Perkin Elmer) plate reader. Background counts from cells treated with DMSO alone are subtracted from all raw counts, and the corrected values are converted to a percentage of the control response attained with 8 μM GW-4064.

Row | Compound | EC50 [nM]
16 | O=C(O)c1cccc(COCC23CCC(OCc4c(-c5c(Cl)cncc5Cl)noc4C4CC4)(CC2)CC3)c1 [Example 525] | 167
17 | O=C(O)c1cc(OCC23CCC(OCc4c(-c5c(Cl)cncc5Cl)noc4C4CC4)(CC2)CC3)nn1CC1CC1 [Example 528] | 16
18 | O=C(O)COc1cc(/C=C/C23CCC(OCc4c(-c5c(Cl)cncc5Cl)noc4C4CC4)(CC2)CC3)ccn1 [Example 617] | 1460
19 | COc1nc(C(=O)O)nc2ccc(/C=C/C34CCC(OCc5c(-c6c(Cl)cncc6Cl)noc5C5CC5)(CC3)CC4)cc12 [Example 590] | 944
20 | O=C(O)Cc1ccc(C#CC23CCC(OCc4c(-c5c(Cl)cncc5Cl)noc4C4CC4)(CC2)CC3)c(C(F)(F)F)c1 [Example 565] | 115
21 | O=C(O)c1ccc(NCC23CCC(OCc4c(-c5c(Cl)cccc5Cl)noc4C4CC4)(CC2)CC3)nc1 [Example 579] | 70
22 | O=C(O)Cc1ccc(C#CC23CCC(OCc4c(-c5c(Cl)cncc5Cl)noc4C4CC4)(CC2)CC3)cc1F [Example 567] | 121
23 | O=C(O)c1cc2ccc(C#CC34CCC(OCc5c(-c6c(Cl)cncc6Cl)noc5C5CC5)(CC3)CC4)cc2c(N2CCC(O)C2)n1 (stereo not drawn) [Example 557] | 188
24 | O=C(O)CCc1cccc(/C=C/C23CCC(OCc4c(-c5c(Cl)cncc5Cl)noc4C4CC4)(CC2)CC3)c1 [Example 623] | 843
25 | O=C(O)Cc1ccc(/C=C/C23CCC(OCc4c(-c5c(Cl)cncc5Cl)noc4C4CC4)(CC2)CC3)cc1 [Example 587] | 173
26 | COCCCOc1nc(C(=O)O)cc2cc(C#CC34CCC(OCc5c(-c6c(Cl)cncc6Cl)noc5C5CC5)(CC3)CC4)ccc12 [Example 549] | 126
27 | O=C(O)c1cc2ccc(C#CC34CCC(OCc5c(-c6c(Cl)cncc6Cl)noc5C5CC5)(CC3)CC4)cc2c(N2CC(O)C2)n1 [Example 552] | 100
28 | O=C(O)c1cc2ccc(C#CC34CCC(OCc5c(-c6c(Cl)cncc6Cl)noc5C5CC5)(CC3)CC4)cc2c(N2CCC(O)CC2)n1 [Example 558] | 20
29 | CN1CCN(c2ncc(C(=O)O)cc2C#CC23CCC(OCc4c(-c5c(Cl)cncc5Cl)noc4C4CC4)(CC2)CC3)CC1 [Example 568] | 524
30 | CNC(=O)Cc1ccc(/C=C/C23CCC(OCc4c(-c5c(Cl)cncc5Cl)noc4C4CC4)(CC2)CC3)cc1 [Example 618] | 393
31 | O=C(O)c1cc(OCC23CCC(OCc4c(-c5c(Cl)cncc5Cl)noc4C4CC4)(CC2)CC3)nn1C1CC1 [Example 539] | 25
32 | O=C(O)CCc1ccc(C#CC23CCC(OCc4c(-c5c(Cl)cncc5Cl)noc4C4CC4)(CC2)CC3)cc1 [Example 564] | 175
33 | CCOc1cc(C(=O)O)nc2ccc(/C=C/C34CCC(OCc5c(-c6c(Cl)cncc6Cl)noc5C5CC5)(CC3)CC4)cc12 [Example 598] | 11
34 | O=C(O)c1ccc2cc(/C=C/C34CCC(OCc5c(-c6c(Cl)cncc6Cl)noc5C5CC5)(CC3)CC4)ccc2n1 [Example 588] | 88
35 | O=C(O)c1cc2ccc(/C=C/C34CCC(OCc5c(-c6c(Cl)cncc6Cl)noc5C5CC5)(CC3)CC4)cc2c(Cl)n1 [Example 599] | 15
36 | O=C(O)CCc1ccc(/C=C/C23CCC(OCc4c(-c5c(Cl)cncc5Cl)noc4C4CC4)(CC2)CC3)cc1 [Example 606] | 160
37 | CC(C)Oc1cc(C(=O)O)nc2ccc(/C=C/C34CCC(OCc5c(-c6c(Cl)cncc6Cl)noc5C5CC5)(CC3)CC4)cc12 [Example 591] | 16
38 | O=C(O)c1cc2ccc(C#CC34CCC(OCc5c(-c6c(Cl)cncc6Cl)noc5C5CC5)(CC3)CC4)cc2c(N2CCOCC2)n1 [Example 548] | 13
39 | O=C(O)c1cnc(N2CCC2)c(C#CC23CCC(OCc4c(-c5c(Cl)cncc5Cl)noc4C4CC4)(CC2)CC3)c1 [Example 562] | 21
40 | O=C(O)CCc1ccc(/C=C/C23CCC(OCc4c(-c5c(Cl)cncc5Cl)noc4C4CC4)(CC2)CC3)cc1F [Example 607] | 269
41 | CN(C)C(=O)Cc1ccc(/C=C/C23CCC(OCc4c(-c5c(Cl)cncc5Cl)noc4C4CC4)(CC2)CC3)cc1 [Example 620] | 382
42 | CCn1nc(C(=O)O)c(F)c1OCC12CCC(OCc3c(-c4c(Cl)cncc4Cl)noc3C3CC3)(CC1)CC2 [Example 540] | 345
